What follows are compounds tested on CNV progression (assay: In vivo choroidal neovascularization (CNV) model). Settings: 240 h; rat laser-induced CNV, 30 nmol/eye injection on Day 3, CNV area on Day 10 vs vehicle-treated group.
Parameters: species or system Brown-Norway rats
Excerpt: In vivo Choroidal Neovascularization (CNV) Model
This test measures the capacity of compounds to inhibit CNV progression. CNV is the main cause of severe vision loss in patients suffering from age-related macular degeneration (AMD).
Male Brown-Norway rats (Japan Clea Co., Ltd.) were used in these studies.
Rats were anesthetized by intraperitoneal injection of pentobarbital, and the right pupil was dilated with 0.5% tropicamide and 0.5% phenylephrine hydrochloride. The right eye received 6 laser burns between retinal vessels using a slit lamp delivery system of Green laser Photocoagulator (Nidex Inc., Japan), and microscope slide glass with Healon™ (AMO Inc) used as a contact lens. The laser power was 100 or 200 mW for 0.1 second and spot diameter was 100 μm. At the time of laser burn, bubble production was observed, which is an indication of rupture of Bruch's membrane which is important for CNV generation.
Rats were divided into the groups based on their body weight using SAS software (SAS institute Japan, R8.1) after laser irradiation (Day 0). After animals were anesthetized, and the right pupil dilated (as above mentioned), the right eye of the animal received the compound or vehicle by an injection (10 μL/eye) at doses of 30 nmol/eye on Day 3. The compounds were dissolved or suspended in CBS, PBS, or other adequate vehicles before injection.
On Day 10, the animals were anesthetized with ether, and high molecular weight fluorescein isothiocyanate (FITC)-dextran (SIGMA, 2×10^6 MW) was injected via a tail vein (20 mg/rat). About 30 min after FITC-dextran injection, animals were euthanized by ether or carbon dioxide, and the eyes were removed and fixed with 10% formaline neutral buffer solution. After over 1 hour of fixation, RPE-choroid-sclera flat mounts were obtained by removing cornea, lens and retina from the eyeballs. The flat mounts were mounted in 50% glycerol on a microscope slide, and the portion burned by laser was photographed using a fluorescence microscope (Nikon Corporation, excitation filter: 465-495 nm, absorption filter: 515-555 nm). The CNV area was obtained by measurement of hyper-fluorescence area observed on the photograph using Scion image.
The average CNV area of 6 burns was used as an individual value of CNV area, and the average CNV area of compound treated group was compared with that of the vehicle-treated group.
With `COCCNCc1cnc(-c2cc3nccc(Oc4ccc(NC(=O)NC(C)C)cc4F)c3s2)n1C` [Compound 315, 1-(3-Fluoro-4-(2-(5-((2-methoxyethylamino)methyl)-1-methyl-1H-imidazol-2-yl)thieno[3,2-b]pyridin-7-yloxy)phenyl)-3-isopropylurea] the inhibition in vivo at 30 nmol/eye was no less than 60%. For `COCCOCCOCCOCCNCc1ccc(-c2cc3nccc(Oc4ccc(NC(=O)NC5CC5)cc4F)c3s2)nc1` [Compound 323, 1-(4-(2-(5-5,8,11,14-Tetraoxa-2-azapentadecylpyridin-2-yl)thieno[3,2-b]pyridin-7-yloxy)-3-fluorophenyl)-3-cyclopropylurea], the inhibition in vivo at 30 nmol/eye was no less than 60%. Compound `N[C@@H](CCCCNCc1ccc(-c2cc3nccc(Oc4ccc(NC(=O)NC5CC5)cc4F)c3s2)nc1)C(=O)O` [Compound 324, (S)-2-amino-6-((6-(7-(4-(3-cyclopropylureido)-2-fluorophenoxy)thieno[3,2-b]pyridin-2-yl)pyridin-3-yl)methylamino)hexanoic acid] has an inhibition in vivo at 30 nmol/eye of 40 to 60%. `COCCOCCNCc1ccc(-c2cc3nccc(Oc4ccc(NC(=O)NC5CC5)cc4F)c3s2)nc1` [Compound 331, 1-Cyclopropyl-3-(3-fluoro-4-(2-(5-((2-(2-methoxyethoxy)ethylamino)methyl)pyridin-2-yl)thieno[3,2-b]pyridin-7-yloxy)phenyl)urea] was tested, and the inhibition in vivo at 30 nmol/eye was 40 to 60%. For `O=C(Nc1ccc(Oc2ccnc3cc(-c4ccc(CN5CCCC5=O)cn4)sc23)c(F)c1)NC1CC1` [Compound 333, 1-cyclopropyl-3-(3-fluoro-4-(2-(5-((2-oxopyrrolidin-1-yl)methyl)pyridin-2-yl)thieno[3,2-b]pyridin-7-yloxy)phenyl)urea], the inhibition in vivo at 30 nmol/eye was no less than 60%. `COC[C@H](C)N(Cc1ccc(-c2cc3nccc(Oc4ccc(NC(=O)NC5CC5)cc4F)c3s2)nc1)C(C)=O` [Compound 335, (S)—N-((6-(7-(4-(3-cyclopropylureido)-2-fluorophenoxy)thieno[3,2-b]pyridin-2-yl)pyridin-3-yl)methyl)-N-(1-methoxypropan-2-yl)acetamide] showed an inhibition in vivo at 30 nmol/eye of 40 to 60%. For `COCCN(Cc1ccc(-c2cc3nccc(Oc4ccc(NC(=O)NC5CC5)cc4F)c3s2)nc1)C(=O)[C@H](N)C(C)C` [Compound 341, (R)-2-amino-N-((6-(7-(4-(3-cyclopropylureido)-2-fluorophenoxy)thieno[3,2-b]pyridin-2-yl)pyridin-3-yl)methyl)-N-(2-methoxyethyl)-3-methylbutanamide], the inhibition in vivo at 30 nmol/eye was no less than 60%. Compound `COCCN(Cc1cnc(-c2cc3nccc(Oc4ccc(NC(=O)NC5CC5)cc4F)c3s2)n1C)S(C)(=O)=O` [Compound 349, N-((2-(7-(4-(3-Cyclopropylureido)-2-fluorophenoxy)thieno[3,2-b]pyridin-2-yl)-1-methyl-1H-imidazol-5-yl)methyl)-N-(2-methoxyethyl)methanesulfonamide] has an inhibition in vivo at 30 nmol/eye of no less than 60%. In the case of `COCCNCc1cnc(-c2cc3nccc(Oc4ccc(NC(=O)Nc5ccc(F)cc5F)cc4F)c3s2)n1C` [Compound 351, 1-(2,4-difluorophenyl)-3-(3-fluoro-4-(2-(5-((2-methoxyethylamino)methyl)-1-methyl-1H-imidazol-2-yl)thieno[3,2-b]pyridin-7-yloxy)phenyl)urea], the inhibition in vivo at 30 nmol/eye is reported as 40 to 60%. `COCCNCc1cccc(-c2cc3nccc(Oc4ccc(NC(=O)Nc5cccc(P(C)(C)=O)c5)cc4F)c3s2)n1` [Compound 387, 1-(3-(dimethylphosphoryl)phenyl)-3-(3-fluoro-4-(2-(6-((2-methoxyethylamino)methyl)pyridin-2-yl)thieno[3,2-b]pyridin-7-yloxy)phenyl)urea] showed an inhibition in vivo at 30 nmol/eye of 40 to 60%. Compound `COCCOCCOCCNCc1ccc(-c2cc3nccc(Oc4ccc(NC(=O)Nc5cccc(P(C)(C)=O)c5)cc4F)c3s2)nc1` [Compound 390, 1-(4-(2-(5-5,8,11-trioxa-2-azadodecylpyridin-2-yl)thieno[3,2-b]pyridin-7-yloxy)-3-fluorophenyl)-3-(3-(dimethylphosphoryl)phenyl)urea] has an inhibition in vivo at 30 nmol/eye of 40 to 60%. `COCCOCCNCc1ccc(-c2cc3nccc(Oc4ccc(NC(=O)Nc5cc(C)on5)cc4F)c3s2)nc1` [Compound 392, 1-(3-fluoro-4-(2-(5-((2-(2-methoxyethoxy)ethylamino)methyl)pyridin-2-yl)thieno[3,2-b]pyridin-7-yloxy)phenyl)-3-(5-methylisoxazol-3-yl)urea] gave an inhibition in vivo at 30 nmol/eye of 40 to 60%. `COCCNCc1ccc(-c2cc3nccc(Oc4ccc(NC(=O)Nc5nc(C)cs5)cc4F)c3s2)nc1` [Compound 397, 1-(3-fluoro-4-(2-(5-((2-methoxyethylamino)methyl)pyridin-2-yl)thieno[3,2-b]pyridin-7-yloxy)phenyl)-3-(4-methylthiazol-2-yl)urea] showed an inhibition in vivo at 30 nmol/eye of 40 to 60%. In the case of `COCCNCc1ccc(-c2cc3nccc(Oc4ccc(NC(=O)Nc5cccc(S(N)(=O)=O)c5)cc4F)c3s2)nc1` [Compound 403, 3-(3-(3-fluoro-4-(2-(5-((2-methoxyethylamino)methyl)pyridin-2-yl)thieno[3,2-b]pyridin-7-yloxy)phenyl)ureido)benzenesulfonamide], the inhibition in vivo at 30 nmol/eye is reported as no less than 60%. For `COCCN(Cc1ccc(-c2cc3nccc(Oc4ccc(NC(=O)Nc5cccc(S(C)(=O)=O)c5)cc4F)c3s2)nc1)C(C)=O` [Compound 413, N-((6-(7-(2-fluoro-4-(3-(3-(methylsulfonyl)phenyl)ureido)phenoxy)thieno[3,2-b]pyridin-2-yl)pyridin-3-yl)methyl)-N-(2-methoxyethyl)acetamide], the inhibition in vivo at 30 nmol/eye was no less than 60%. Compound `COCCNCc1ccc(-c2cc3nccc(Oc4ccc(NC(=O)NC5CCC5)cc4F)c3s2)nc1` [Compound 414, 1-cyclobutyl-3-(3-fluoro-4-(2-(5-((2-methoxyethylamino)methyl)pyridin-2-yl)thieno[3,2-b]pyridin-7-yloxy)phenyl)urea] has an inhibition in vivo at 30 nmol/eye of 40 to 60%. With `COCCN(Cc1ccc(-c2cc3nccc(Oc4ccc(NC(=O)Nc5cccc(C(N)=O)c5)cc4F)c3s2)nc1)C(=O)OC` [Compound 419, methyl (6-(7-(4-(3-(3-carbamoylphenyl)ureido)-2-fluorophenoxy)thieno[3,2-b]pyridin-2-yl)pyridin-3-yl)methyl(2-methoxyethyl)carbamate] the inhibition in vivo at 30 nmol/eye was 40 to 60%.

Same assay, conditions: rat laser-induced CNV, 30 nmol/eye injection on Day 3, CNV area on Day 10 vs vehicle-treated group
`COCCNCc1cnc(-c2cc3nccc(Oc4ccc(NC(=O)NC5CC5)cc4F)c3s2)n1C` [Compound 348] was tested, and the “Inhibition of CNV progression” value was “B (≧40% to <60% inhibition)”.
